pEC50: −log10 of the molar value. Active and inactive are the calls of the source. The calls are words filed in the database; no cut-off is given here.
Key:
[1] = molecular target: Melanocortin receptor 3 (Mus musculus) (UniProt P33033); test: Agonistic activity against mouse MC3R at […]; format: functional
[2] = molecular target: Melanocortin receptor 4 (Mus musculus) (UniProt P56450); test: Agonistic activity against mouse MC4R at […]; format: functional
Mus musculus [3] = species on record: Mus musculus; test: Selectivity index, ratio of EC50 for mouse MCR4R to EC50 for mouse MC1R
Mus musculus [4] = species on record: Mus musculus; test: Selectivity index, ratio of EC50 for mouse MCR5R to EC50 for mouse MC1R
[5] = molecular target: Melanocortin receptor 5 (Mus musculus) (UniProt P41149); test: Agonistic activity against mouse MC5R at […]; format: functional
[6] = molecular target: Melanocyte-stimulating hormone receptor (Mus musculus, UniProt Q01727); test: Agonistic activity against mouse MC1R; format: functional
Melanocortin receptor 4 = Melanocortin receptor 4 (Mus musculus, UniProt P56450); test: Agonistic activity against mouse MC4R; format: functional
Melanocortin receptor 5 = Melanocortin receptor 5 (Mus musculus, UniProt P41149); test: Agonistic activity against mouse MC5R; format: functional
Sequence of Melanocortin receptor 5 (P41149 whole entry): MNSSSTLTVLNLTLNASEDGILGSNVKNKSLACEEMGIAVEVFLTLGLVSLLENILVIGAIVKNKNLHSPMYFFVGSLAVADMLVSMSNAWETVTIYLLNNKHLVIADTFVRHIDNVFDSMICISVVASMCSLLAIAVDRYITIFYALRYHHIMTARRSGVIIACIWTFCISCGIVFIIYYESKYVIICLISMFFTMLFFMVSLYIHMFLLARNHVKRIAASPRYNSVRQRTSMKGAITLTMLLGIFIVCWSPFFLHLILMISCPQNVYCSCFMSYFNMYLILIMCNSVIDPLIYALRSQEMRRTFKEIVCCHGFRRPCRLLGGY

Sequence of Melanocortin receptor 3 (Mus musculus) (P33033 whole entry): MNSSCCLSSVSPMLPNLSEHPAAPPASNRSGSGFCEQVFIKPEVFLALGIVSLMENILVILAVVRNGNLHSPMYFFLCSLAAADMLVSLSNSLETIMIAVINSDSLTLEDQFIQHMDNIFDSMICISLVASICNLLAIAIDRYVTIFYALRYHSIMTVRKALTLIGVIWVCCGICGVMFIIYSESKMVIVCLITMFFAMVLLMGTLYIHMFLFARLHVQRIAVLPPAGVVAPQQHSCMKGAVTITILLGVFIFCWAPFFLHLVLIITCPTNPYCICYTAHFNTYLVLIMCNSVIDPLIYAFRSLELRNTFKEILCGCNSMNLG
Sequence of Melanocortin receptor 4 (Mus musculus) (P56450 whole entry): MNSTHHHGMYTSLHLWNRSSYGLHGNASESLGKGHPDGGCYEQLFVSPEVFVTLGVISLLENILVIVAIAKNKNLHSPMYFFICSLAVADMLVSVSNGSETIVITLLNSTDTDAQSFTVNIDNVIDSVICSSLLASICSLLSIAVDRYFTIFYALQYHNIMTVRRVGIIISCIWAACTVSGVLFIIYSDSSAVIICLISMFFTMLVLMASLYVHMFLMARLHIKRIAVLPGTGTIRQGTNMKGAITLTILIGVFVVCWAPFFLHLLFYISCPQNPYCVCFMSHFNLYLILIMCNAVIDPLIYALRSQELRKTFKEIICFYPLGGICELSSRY
Sequence of Melanocortin receptor 5 (Mus musculus) (P41149 whole entry): as the sequence (P41149 whole entry) above
Sequence of Melanocyte-stimulating hormone receptor (Q01727 whole entry): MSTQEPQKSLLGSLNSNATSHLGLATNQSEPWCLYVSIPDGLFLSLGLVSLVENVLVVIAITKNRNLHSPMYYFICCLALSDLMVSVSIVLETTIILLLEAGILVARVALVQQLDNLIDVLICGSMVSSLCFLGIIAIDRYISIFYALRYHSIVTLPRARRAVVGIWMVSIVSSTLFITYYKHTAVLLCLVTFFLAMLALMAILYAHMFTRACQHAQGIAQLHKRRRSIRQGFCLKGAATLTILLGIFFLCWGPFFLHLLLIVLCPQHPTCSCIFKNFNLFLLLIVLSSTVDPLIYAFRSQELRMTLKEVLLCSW
Sequence of Melanocortin receptor 4 (P56450 whole entry): as the sequence (P56450 whole entry) above

Row | Activity [1] | SMILES | also measured
1 | inactive | COc1ccc(/C=C/C(=O)N[C@@H](Cc2cnc[nH]2)C(=O)N[C@H](Cc2ccccc2)C(=O)NC(CCCNC(=N)N)C(N)=O)cc1 (single isomer, unassigned) | 
2 | inactive | N=C(N)NCCCC(NC(=O)[C@@H](Cc1ccccc1)NC(=O)[C@H](Cc1cnc[nH]1)NC(=O)/C=C/c1ccc([N+](=O)[O-])cc1)C(N)=O (single isomer, unassigned) | Activity [2]: inactive
3 | inactive | N=C(N)NCCCC(NC(=O)[C@@H](Cc1ccccc1)NC(=O)[C@H](Cc1cnc[nH]1)NC(=O)CCc1cccnc1)C(N)=O (single isomer, unassigned) | Activity [2]: inactive
4 | inactive | N=C(N)NCCCC(NC(=O)[C@@H](Cc1ccccc1)NC(=O)[C@H](Cc1cnc[nH]1)NC(=O)/C=C/c1ccccc1)C(N)=O (single isomer, unassigned) | Selectivity Index (Mus musculus [3]): 44; Selectivity Index (Mus musculus [4]): 25
5 | inactive | N=C(N)NCCCC(NC(=O)[C@@H](Cc1ccccc1)NC(=O)[C@H](Cc1cnc[nH]1)NC(=O)CCc1cccc(O)c1)C(N)=O (single isomer, unassigned) | Activity [2]: inactive
6 | inactive | N=C(N)NCCCC(NC(=O)[C@@H](Cc1ccccc1)NC(=O)[C@H](Cc1cnc[nH]1)NC(=O)/C(F)=C/c1ccccc1)C(N)=O (single isomer, unassigned) | 
7 | inactive | N=C(N)NCCCC(NC(=O)[C@@H](Cc1ccccc1)NC(=O)[C@H](Cc1cnc[nH]1)NC(=O)/C=C/c1cccc(O)c1)C(N)=O (single isomer, unassigned) | 
8 | inactive | N=C(N)NCCCC(NC(=O)[C@@H](Cc1ccccc1)NC(=O)[C@H](Cc1cnc[nH]1)NC(=O)CCC(=O)c1ccccc1)C(N)=O (single isomer, unassigned) | 
9 | inactive | N=C(N)NCCCC(NC(=O)[C@@H](Cc1ccccc1)NC(=O)[C@H](Cc1cnc[nH]1)NC(=O)CCC(=O)c1ccc(F)cc1)C(N)=O (single isomer, unassigned) | 
10 | inactive | N#C/C(=C\c1ccc(O)cc1)C(=O)N[C@@H](Cc1cnc[nH]1)C(=O)N[C@H](Cc1ccccc1)C(=O)NC(CCCNC(=N)N)C(N)=O (single isomer, unassigned) | 
11 | inactive | N=C(N)NCCC[C@@H](NC(=O)[C@@H](Cc1ccccc1)NC(=O)[C@H](Cc1cnc[nH]1)NC(=O)/C=C/c1ccc(F)cc1F)C(N)=O | 
12 | inactive | COc1ccc(/C=C\C(=O)N[C@@H](Cc2cnc[nH]2)C(=O)N[C@H](Cc2ccccc2)C(=O)N[C@H](CCCNC(=N)N)C(N)=O)cc1 | 
13 | inactive | N=C(N)NCCCC(NC(=O)[C@@H](Cc1ccccc1)NC(=O)[C@H](Cc1cnc[nH]1)NC(=O)CCc1ccc(O)cc1)C(N)=O (single isomer, unassigned) | Activity [2]: inactive
14 | inactive | CC(=O)N/C(=C\c1ccccc1)C(=O)N[C@@H](Cc1cnc[nH]1)C(=O)N[C@H](Cc1ccccc1)C(=O)NC(CCCNC(=N)N)C(N)=O (single isomer, unassigned) | Activity [5]: inactive
15 | inactive | N=C(N)NCCCC(NC(=O)[C@@H](Cc1ccccc1)NC(=O)[C@H](Cc1cnc[nH]1)NC(=O)c1ccc2cc(O)ccc2c1)C(N)=O (single isomer, unassigned) | Activity [2]: inactive
16 | inactive | N=C(N)NCCCC(NC(=O)[C@@H](Cc1ccccc1)NC(=O)[C@H](Cc1cnc[nH]1)NC(=O)c1ccc2c(c1)OCO2)C(N)=O (single isomer, unassigned) | 
17 | inactive | N=C(N)NCCCC(NC(=O)[C@@H](Cc1ccccc1)NC(=O)[C@H](Cc1cnc[nH]1)NC(=O)CCc1cccc2c1OCO2)C(N)=O (single isomer, unassigned) | pEC50 [6]: 5.14; pEC50 (Melanocortin receptor 4): 4.59; pEC50 (Melanocortin receptor 5): 4.64
18 | inactive | N=C(N)NCCCC(NC(=O)[C@@H](Cc1ccccc1)NC(=O)[C@H](Cc1cnc[nH]1)NC(=O)CCc1c[nH]cn1)C(N)=O (single isomer, unassigned) | 
19 |  | N=C(N)NCCCC(NC(=O)[C@@H](Cc1ccccc1)NC(=O)[C@H](Cc1cnc[nH]1)NC(=O)CCCCc1ccc2c(c1)OCO2)C(N)=O (single isomer, unassigned) | Activity [2]: inactive; Activity [5]: inactive
20 | inactive | COc1ccccc1/C=C/C(=O)N[C@@H](Cc1cnc[nH]1)C(=O)N[C@H](Cc1ccccc1)C(=O)NC(CCCNC(=N)N)C(N)=O (single isomer, unassigned) | 
21 | inactive | N=C(N)NCCC[C@@H](NC(=O)[C@@H](Cc1ccccc1)NC(=O)[C@H](Cc1cnc[nH]1)NC(=O)/C=C/c1ccc2c(c1)OCO2)C(N)=O | 

Reference: ChEMBL document CHEMBL1155320, “Semi-rigid tripeptide agonists of melanocortin receptors” (Bioorg Med Chem Lett, 2009)
